Reference: patent US9809623B2, “α4β7 peptide monomer and dimer antagonists” (Protagonist Therapeutics, Inc., priority 2014, dated 2017)
Numbered stars: 1 amine (or outer) side, 2 acyl side, 3 side chain; on linkers, the order of the positions; unused ones are H or OH. Bridge positions count the residues as written; N and C are the ends. Square brackets hold non-standard residues; d marks the D form. Peptide text beside a SMILES is read from it. I, II: the chains in the order shown. * marks the point of attachment. Phe(4-tBu) = CC(C)(C)c1ccc(C[C@H](N)C(=O)O)cc1; Bip = N[C@@H](Cc1ccc(-c2ccccc2)cc1)C(=O)O; 2Nal = N[C@@H](Cc1ccc2ccccc2c1)C(=O)O; Diglycolyl = O=C(COCC(=O)[*:2])[*:1]; Oleoyl = CCCCCCCC/C=C\CCCCCCCC(=O)*; NMeR = CN[C@@H](CCCNC(=N)N)C(=O)O; Tic = O=C(O)[C@@H]1Cc2ccccc2CN1; β3hE = N[C@@H](CCC(=O)O)CC(=O)O; NMeK = CN[C@@H](CCCCN)C(=O)O; Pen = CC(C)(S)[C@H](N)C(=O)O

Target: α4β7 (Homo sapiens, UniProt P13612+P26010)
Sequence (P13612 34-1032): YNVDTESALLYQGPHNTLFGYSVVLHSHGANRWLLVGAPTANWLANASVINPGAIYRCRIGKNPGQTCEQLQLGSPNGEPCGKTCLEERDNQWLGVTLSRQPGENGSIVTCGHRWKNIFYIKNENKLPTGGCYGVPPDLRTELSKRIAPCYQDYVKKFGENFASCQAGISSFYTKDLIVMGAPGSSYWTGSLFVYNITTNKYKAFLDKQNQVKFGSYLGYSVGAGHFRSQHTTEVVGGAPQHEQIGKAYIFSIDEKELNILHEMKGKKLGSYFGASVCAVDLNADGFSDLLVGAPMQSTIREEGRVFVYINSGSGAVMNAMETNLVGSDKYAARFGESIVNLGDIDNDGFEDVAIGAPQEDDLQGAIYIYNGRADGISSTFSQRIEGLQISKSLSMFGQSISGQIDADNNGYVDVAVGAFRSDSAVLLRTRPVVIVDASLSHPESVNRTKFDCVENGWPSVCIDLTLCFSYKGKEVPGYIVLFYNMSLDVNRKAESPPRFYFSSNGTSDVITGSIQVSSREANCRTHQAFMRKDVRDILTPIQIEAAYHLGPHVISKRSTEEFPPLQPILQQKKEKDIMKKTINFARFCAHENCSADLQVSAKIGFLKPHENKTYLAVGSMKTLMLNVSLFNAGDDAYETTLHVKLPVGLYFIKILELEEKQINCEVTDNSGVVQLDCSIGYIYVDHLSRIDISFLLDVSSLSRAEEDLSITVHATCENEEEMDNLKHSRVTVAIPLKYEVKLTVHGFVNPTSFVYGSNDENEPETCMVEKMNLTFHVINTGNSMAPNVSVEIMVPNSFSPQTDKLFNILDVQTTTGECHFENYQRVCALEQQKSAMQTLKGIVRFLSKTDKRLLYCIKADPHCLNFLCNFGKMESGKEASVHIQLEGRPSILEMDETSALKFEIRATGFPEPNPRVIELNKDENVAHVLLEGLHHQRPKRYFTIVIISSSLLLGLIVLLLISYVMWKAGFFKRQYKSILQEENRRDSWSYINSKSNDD
Sequence (P26010 20-798): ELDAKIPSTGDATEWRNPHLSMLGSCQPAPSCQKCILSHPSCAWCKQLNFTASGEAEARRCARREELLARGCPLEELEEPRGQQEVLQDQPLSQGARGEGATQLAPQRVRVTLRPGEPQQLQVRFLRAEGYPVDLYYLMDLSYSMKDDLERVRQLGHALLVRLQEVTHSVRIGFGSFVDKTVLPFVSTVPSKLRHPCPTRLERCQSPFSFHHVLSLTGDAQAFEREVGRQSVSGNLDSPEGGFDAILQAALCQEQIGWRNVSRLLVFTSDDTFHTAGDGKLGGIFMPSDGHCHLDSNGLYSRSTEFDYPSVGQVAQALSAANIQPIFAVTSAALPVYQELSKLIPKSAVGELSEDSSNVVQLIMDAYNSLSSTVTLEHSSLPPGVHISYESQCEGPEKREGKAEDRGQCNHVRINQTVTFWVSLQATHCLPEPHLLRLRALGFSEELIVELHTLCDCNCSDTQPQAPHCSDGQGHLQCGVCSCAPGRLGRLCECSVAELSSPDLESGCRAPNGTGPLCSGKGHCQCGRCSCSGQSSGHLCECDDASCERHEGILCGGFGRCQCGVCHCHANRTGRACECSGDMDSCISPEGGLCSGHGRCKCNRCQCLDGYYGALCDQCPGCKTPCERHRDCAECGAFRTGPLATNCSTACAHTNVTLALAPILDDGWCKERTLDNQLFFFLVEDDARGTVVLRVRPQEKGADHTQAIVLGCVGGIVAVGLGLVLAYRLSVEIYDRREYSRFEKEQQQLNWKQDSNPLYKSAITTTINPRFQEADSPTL
Experiment: α4β7-MAdCAM Cell Adhesion Assay (RPMI 8866 human cells)
Type: cell-based
Design: host or cells: RPMI 8866 human B lymphoblastoid cells
Conditions: Table 3-B, Potency (α4β7); range classes; read-out: α4β7 cell (Hu) IC50
Summary of the method: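 Washed RPMI 8866 cells (200,000/well) in DMEM with 0.1% BSA, 10 mM HEPES pH 7, 1 mM MnCl2 adhered to rh MAdCAM-1/Fc-coated wells with serially diluted peptides, 30-45 min at 37 °C. After three washes, bound cells quantified by MTT, A570, cell-free background subtracted for dose response.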

SMILES	IC50
CC(=O)N[C@@H]1C(=O)N(C)[C@@H](CCCNC(=N)N)C(=O)N[C@@H](CO)C(=O)N[C@@H](CC(=O)O)C(=O)N[C@@H]([C@@H](C)O)C(=O)N[C@@H](CC(C)C)C(=O)N[C@H](C(=O)N[C@@H](Cc2c[nH]c3ccccc23)C(=O)N[C@@H](Cc2ccccc2)C(=O)N[C@H](CCCCNC(=O)COCC(=O)NCCCC[C@@H](NC(=O)[C@H](Cc2ccccc2)NC(=O)[C@H](Cc2c[nH]c3ccccc23)NC(=O)[C@H]2NC(=O)[C@H](CC(C)C)NC(=O)[C@H]([C@@H](C)O)NC(=O)[C@H](CC(=O)O)NC(=O)[C@H](CO)NC(=O)[C@H](CCCNC(=N)N)N(C)C(=O)[C@@H](NC(C)=O)C(C)(C)SSC2(C)C)C(N)=O)C(N)=O)C(C)(C)SSC1(C)C [compound 85] (I: Ac-[Pen][NMeR]SDTL[Pen]WF[dK]-NH2 / II: Ac-[Pen][NMeR]SDTL[Pen]WF[dK]-NH2; disulfide I:1-I:7, II:1-II:7; linker I:10-II:10 via Diglycolyl)	< 10 nM
CC(=O)N[C@@H]1C(=O)N(C)[C@@H](CCCNC(=N)N)C(=O)N[C@@H](CO)C(=O)N[C@@H](CC(=O)O)C(=O)N[C@@H]([C@@H](C)O)C(=O)N[C@@H](CC(C)C)C(=O)N[C@H](C(=O)N[C@H](Cc2ccccc2)C(=O)N[C@@H](CCC(=O)O)C(=O)N[C@H](CCCCNC(=O)COCC(=O)NCCCC[C@@H](NC(=O)[C@H](CCC(=O)O)NC(=O)[C@@H](Cc2ccccc2)NC(=O)[C@H]2NC(=O)[C@H](CC(C)C)NC(=O)[C@H]([C@@H](C)O)NC(=O)[C@H](CC(=O)O)NC(=O)[C@H](CO)NC(=O)[C@H](CCCNC(=N)N)N(C)C(=O)[C@@H](NC(C)=O)C(C)(C)SSC2(C)C)C(N)=O)C(N)=O)C(C)(C)SSC1(C)C [compound 30] (I: Ac-[Pen][NMeR]SDTL[Pen][dF]E[dK]-NH2 / II: Ac-[Pen][NMeR]SDTL[Pen][dF]E[dK]-NH2; disulfide I:1-I:7, II:1-II:7; linker I:10-II:10 via Diglycolyl)	100 to 500 nM
CC(=O)N[C@@H]1C(=O)N(C)[C@@H](CCCNC(=N)N)C(=O)N[C@@H](CO)C(=O)N[C@@H](CC(=O)O)C(=O)N[C@@H]([C@@H](C)O)C(=O)N[C@@H](CC(C)C)C(=O)N[C@H](C(=O)N[C@@H](Cc2c[nH]c3ccccc23)C(=O)N2Cc3ccccc3C[C@H]2C(=O)N[C@H](CCCCNC(=O)COCC(=O)NCCCC[C@@H](NC(=O)[C@@H]2Cc3ccccc3CN2C(=O)[C@H](Cc2c[nH]c3ccccc23)NC(=O)[C@H]2NC(=O)[C@H](CC(C)C)NC(=O)[C@H]([C@@H](C)O)NC(=O)[C@H](CC(=O)O)NC(=O)[C@H](CO)NC(=O)[C@H](CCCNC(=N)N)N(C)C(=O)[C@@H](NC(C)=O)C(C)(C)SSC2(C)C)C(N)=O)C(N)=O)C(C)(C)SSC1(C)C [compound 109] (I: Ac-[Pen][NMeR]SDTL[Pen]W[Tic][dK]-NH2 / II: Ac-[Pen][NMeR]SDTL[Pen]W[Tic][dK]-NH2; disulfide I:1-I:7, II:1-II:7; linker I:10-II:10 via Diglycolyl)	100 to 500 nM
CC(=O)N[C@@H]1C(=O)N(C)[C@@H](CCCNC(=N)N)C(=O)N[C@@H](CO)C(=O)N[C@@H](CC(=O)O)C(=O)N[C@@H]([C@@H](C)O)C(=O)N[C@@H](CC(C)C)C(=O)N[C@H](C(=O)N[C@@H](Cc2c[nH]c3ccccc23)C(=O)N[C@H](Cc2ccc(O)cc2)C(=O)N[C@H](CCCCNC(=O)COCC(=O)NCCCC[C@@H](NC(=O)[C@@H](Cc2ccc(O)cc2)NC(=O)[C@H](Cc2c[nH]c3ccccc23)NC(=O)[C@H]2NC(=O)[C@H](CC(C)C)NC(=O)[C@H]([C@@H](C)O)NC(=O)[C@H](CC(=O)O)NC(=O)[C@H](CO)NC(=O)[C@H](CCCNC(=N)N)N(C)C(=O)[C@@H](NC(C)=O)C(C)(C)SSC2(C)C)C(N)=O)C(N)=O)C(C)(C)SSC1(C)C [compound 92] (I: Ac-[Pen][NMeR]SDTL[Pen]W[dY][dK]-NH2 / II: Ac-[Pen][NMeR]SDTL[Pen]W[dY][dK]-NH2; disulfide I:1-I:7, II:1-II:7; linker I:10-II:10 via Diglycolyl)	50 to 100 nM
CCCCCCCC/C=C\CCCCCCCC(=O)N[C@@H]1C(=O)N(C)[C@@H](CCCNC(=N)N)C(=O)N[C@@H](CO)C(=O)N[C@@H](CC(=O)O)C(=O)N[C@@H]([C@@H](C)O)C(=O)N[C@@H](CC(C)C)C(=O)N[C@H](C(=O)N[C@@H](Cc2ccc(C(C)(C)C)cc2)C(=O)N[C@@H](CCC(=O)O)CC(=O)N[C@H](CCCCN)C(N)=O)C(C)(C)SSC1(C)C [compound 180] (Oleoyl-[Pen][NMeR]SDTL[Pen][Phe(4-tBu)][β3hE][dK]-NH2; disulfide 1-7)	1000 to 10000 nM
CC(=O)N[C@@H]1C(=O)N(C)[C@@H](CCCNC(=N)N)C(=O)N[C@@H](CO)C(=O)N[C@@H](CC(=O)O)C(=O)N[C@@H]([C@@H](C)O)C(=O)N[C@@H](CC(C)C)C(=O)N[C@H](C(=O)N[C@@H](Cc2ccc(-c3ccccc3)cc2)C(=O)N[C@@H](CCC(=O)O)C(=O)N(C)[C@@H](CCCCNC(=O)COCC(=O)NCCCC[C@@H](C(N)=O)N(C)C(=O)[C@H](CCC(=O)O)NC(=O)[C@H](Cc2ccc(-c3ccccc3)cc2)NC(=O)[C@H]2NC(=O)[C@H](CC(C)C)NC(=O)[C@H]([C@@H](C)O)NC(=O)[C@H](CC(=O)O)NC(=O)[C@H](CO)NC(=O)[C@H](CCCNC(=N)N)N(C)C(=O)[C@@H](NC(C)=O)C(C)(C)SSC2(C)C)C(N)=O)C(C)(C)SSC1(C)C [compound 136] (I: Ac-[Pen][NMeR]SDTL[Pen][Bip]E[NMeK]-NH2 / II: Ac-[Pen][NMeR]SDTL[Pen][Bip]E[NMeK]-NH2; disulfide I:1-I:7, II:1-II:7; linker I:10-II:10 via Diglycolyl)	< 10 nM
CC(=O)N[C@@H]1C(=O)N(C)[C@@H](CCCNC(=N)N)C(=O)N[C@@H](CO)C(=O)N[C@@H](CC(=O)O)C(=O)N[C@@H](CC(C)C)C(=O)N[C@@H](CC(C)C)C(=O)N[C@H](C(=O)N[C@@H](Cc2ccc3ccccc3c2)C(=O)N[C@H](CCC(=O)O)C(N)=O)C(C)(C)SSC1(C)C [compound 159] (Ac-[Pen][NMeR]SDLL[Pen][2Nal][dE]-NH2; disulfide 1-7)	1000 to 10000 nM
CC(=O)N[C@@H]1C(=O)N(C)[C@@H](CCCNC(=N)N)C(=O)N[C@@H](CO)C(=O)N[C@@H](CC(=O)O)C(=O)N[C@@H]([C@@H](C)O)C(=O)N[C@@H](CC(C)C)C(=O)N[C@H](C(=O)N[C@@H](Cc2c[nH]c3ccccc23)C(=O)N[C@@H](CCC(N)=O)C(=O)N[C@H](CCCCNC(=O)COCC(=O)NCCCC[C@@H](NC(=O)[C@H](CCC(N)=O)NC(=O)[C@H](Cc2c[nH]c3ccccc23)NC(=O)[C@H]2NC(=O)[C@H](CC(C)C)NC(=O)[C@H]([C@@H](C)O)NC(=O)[C@H](CC(=O)O)NC(=O)[C@H](CO)NC(=O)[C@H](CCCNC(=N)N)N(C)C(=O)[C@@H](NC(C)=O)C(C)(C)SSC2(C)C)C(N)=O)C(N)=O)C(C)(C)SSC1(C)C [compound 82] (I: Ac-[Pen][NMeR]SDTL[Pen]WQ[dK]-NH2 / II: Ac-[Pen][NMeR]SDTL[Pen]WQ[dK]-NH2; disulfide I:1-I:7, II:1-II:7; linker I:10-II:10 via Diglycolyl)	50 to 100 nM
